One molecule from publication PMC6934184, “Selective DNA-PKcs inhibition extends the therapeutic index of localized radiotherapy and chemotherapy” (The Journal of Clinical Investigation, 2019) can be followed below.

In general, inhibition refers to the drop in the measured response relative to a control, in per cent.

The target in this experiment is T1, MAP2K6 (MKK6) (Homo sapiens, UniProt P52564).
T1 construct: purchased Thermo Fisher Scientific (Life Technologies) SelectScreen
As to the kind of experiment: SelectScreen Z'LYTE. The following applies: ATP 100 µM. The class given is biochemical. The method in brief: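 Percent values come from Thermo SelectScreen profiling of NU5455, combining activity and binding assays. CSF1R was run in Z'LYTE format at Km app ATP, and CAMK1 in Adapta format with ATP listed at 10.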

SMILES strings stand for the structures.

T1 sequence (P52564 whole entry): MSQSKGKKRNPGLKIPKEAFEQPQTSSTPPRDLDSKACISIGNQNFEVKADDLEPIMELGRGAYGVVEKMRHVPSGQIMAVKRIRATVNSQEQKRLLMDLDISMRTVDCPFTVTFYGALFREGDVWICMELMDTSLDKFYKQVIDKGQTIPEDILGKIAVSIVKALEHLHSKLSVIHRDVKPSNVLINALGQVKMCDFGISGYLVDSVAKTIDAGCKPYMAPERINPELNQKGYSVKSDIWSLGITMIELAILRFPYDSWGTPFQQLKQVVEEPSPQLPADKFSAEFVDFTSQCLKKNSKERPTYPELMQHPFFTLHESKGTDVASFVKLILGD

`CN(C(=O)CN1CCOCC1)c1ccc2sc3c(-c4cccc5c(=O)cc(N6CC7CCC(C6)O7)oc45)cccc3c2c1` [NU5455] had an inhibition at 1 µM of 1.8%.
